Source: US12214076B2, “Drug delivery vehicles for atherosclerosis nanomedicine” (Northwestern University, priority 2019, dated 2025)
Values belong to the compound of their own block, whether it stands above or below them. Ends that are not written are not given here. Peptide text beside a SMILES is read from it. * marks the point of attachment. Palmitoyl = CCCCCCCCCCCCCCCC(=O)*

How the values were obtained:
LDLR KO mice [1] = assay: Atherosclerosis treatment study; format: in vivo, mouse
Protocol: (§1) Mouse model of atherosclerosis: To study atherosclerosis, the LDLR KO mouse was used. LDLR KO mice are fed a high fat “western” diet (Teklad TD.88137) starting at 4 weeks of age. This diet consists of 20% fat, 0.2% cholesterol, and 34% high sucrose. LDLR KO mice fed this diet typically develop severe hypercholesterolemia (>800 mg/dL) and hypertriglyceridemia (>300 mg/dL) after only 2 weeks. By 12 weeks on the high fat diet, atherosclerotic lesions are detected in the aortic root and aortic arch on cryosections stained with Oil Red O (Sigma). Atherosclerosis was quantified in the aortic root as a percentage of the aortic root by taking the atherosclerotic area divided by the total aortic root area. Measurements were made with ImageJ software. All protocols for the animal model and procedures in this manuscript were approved by Northwestern University's Institutional Animal Care and Use Committee.
(§2) Blood samples were collected at the end of the treatment study for toxicology analysis. Mice were euthanized three days after their 16th treatment.
(§3) Tissue processing and imaging: Mice were sacrificed and euthanized under inhaled isoflurane anesthesia by diaphragm disruption and exsanguination. Phlebotomy was performed through direct right ventricular cardiac puncture using a 1 mL syringe and 25 G needle. Perfusion was performed through left ventricular cardiac puncture with 10 mL PBS and 10 mL 10% sucrose solution. The lungs, liver, spleen, kidney, aortic root, aortic arch, and descending aorta were harvested and stored in 10% sucrose for 20 minutes. Organs and vessels were then flash-frozen in Optimal Cutting Temperature embedding medium 4583 (Tissue-Tek®) with liquid nitrogen. Frozen specimens were stored at −80° C. and cryosectioned at […]. Confocal microscopy was performed on a Nikon AIR microscope. Two sets of images were acquired with a 10× Plan Fluor NA 0.3 objective. PAs were identified through quantification of the Alexa Fluor® 546 conjugated dye with 561 nm excitation and a 600/50 nm emission filter.
(§4) Images were acquired with spectral detection and spectrally unmixed to accurately separate green autofluorescence from the red Alexa Fluor® 546 signal. Brightfield and fluorescent microscopy were performed using a Zeiss Axio Imager.A2 microscope with AxioVision software (release 4.8.2, 06-2010). All confocal and fluorescent sections were mounted with ProGold Diamond mounting media (Sigma). Slides were stained with Oil Red O to image and quantify atherosclerosis under brightfield microscopy. The elastic laminae were identified using the green fluorescent protein (GFP) filter with an exposure time of 3500 ms under 5× magnification. Nanofibers were identified in the aortic root by presence of Alexa Fluor® 546 on the Cy3 filter under 5-10× magnification, and in the internal organs under 20× magnification. Fluorescent pixel quantification in the aortic root and within organs was performed with ImageJ software.
(§5) Statistics: The effect of treatments and sex on atherosclerosis progression in mice was analyzed using one- or two-factor analysis of variance (ANOVA) followed by a post-hoc student's t-test. The toxicological effects of treatments were also analyzed using two-factor ANOVA and a post-hoc student's t-test. Toxicological effects of treatments on liver proteins AST, ALT, and ALP were further analyzed using ordinal logistic regression models of likelihood ratio tests, followed by a post-hoc Wald test

[2] = TEM characterization of PA nanofibers for diameter and length (Example 3); format: physicochemical
Protocol: Samples at 1 mM in PBS were prepared for TEM by plating on copper supports covered with thin carbon foil 400-mesh that were treated with glow discharge. […] Due to the overlapping fibers, automated tools including FiberApp could not be used to analyze the nanofibers. Instead, the TEM images were analyzed manually for nanofiber diameter and length using ImageJ software. Cryogenic TEM of samples was also performed using a JEOL 1230 at 100 kV accelerating voltage and Gatan 831 CCD camera. […] Samples were prepared at 1 mM in PBS blotted once for 3 seconds before plunging into liquid ethane using a Vitrobot Mark III (FEI) vitrification robot.

[3] = system: atherosclerotic LDLR KO mice; assay: In vivo proof of concept: PA nanofiber localization in aortic root; set-up: species or system mouse; settings: 24 h after intravenous injection, high fat diet 14 weeks, 6 mg kg-1 PA
Protocol: Mouse Model of Atherosclerosis and In Vivo Proof of Concept: LDLR-KO mice were fed a high fat “Western” diet (Teklad TD.88137) starting at 4 weeks of age. This diet consisted of 20% fat, 0.2% cholesterol, and 34% high sucrose. LDLR-KO mice fed this diet typically develop severe hypercholesterolemia (>800 mg/dL) and hypertriglyceridemia (>300 mg/dL) after only 2 weeks, and by 12 weeks on the high fat diet, atherosclerotic lesions are detected in the aortic root and aortic arch. After 14 weeks on the high fat diet, mice received intravenous injections of PA nanofibers dissolved in PBS (dorsal penile vein in males) under sterile conditions. Mice were briefly anesthetized for injection with inhaled isoflurane. After injection, mice were monitored and allowed to recover from anesthesia in a heated oxygen chamber. […] PA fluorescence was assessed with the HE CY3 filter (Zeiss filter #43) using excitation and emission wavelengths of 550-575 nm and 605-670 nm, respectively. Nuclear staining was performed with DAPI (4′,6-Diamidino-2-Phenylindole, Dilactate, ThermoFisher, Chicago, IL), and assessed with the DAPI filter (Zeiss filter #49) using excitation and emission wavelengths of 365-395 and 445-450 nm, respectively. Tissue autofluorescence was assessed with the green fluorescent protein filter (Zeiss filter #38) using excitation and emission wavelengths of 470-495 and 525-550 nm, respectively. […]

LDLR KO mice [4] = assay: Targeting of atherosclerosis by IV injected ApoA1 PA nanofibers (Example 3); format: in vivo, mouse; settings: within 24 hours after injection, confocal, Alexa Fluor 546
Protocol: as §1
Injection of PA nanofibers: PA nanofibers were dissolved at 2-4 mg/mL concentration in room temperature phosphate buffered saline (PBS). After 14 weeks on the high fat diet, mice received intravenous injections of PA nanofiber dissolved in PBS (dorsal penile vein in males, retro-orbital injection in females) using a 31 G hypodermic insulin needle on a 0.3 mL syringe under sterile conditions and magnification (NIKON SMZ 645 Zoom Stereomicroscope). Mice were briefly anesthetized for injection with inhaled isoflurane. Mice were monitored and allowed to recover from anesthesia in a heated oxygen chamber.
Dose and concentration study: To determine the optimum concentration for targeting efficacy and safety, LDLR KO mice fed the high fat diet for 14 weeks were injected with PA nanofiber at concentrations of 1 mg/mL, 2 mg/mL, and 4 mg/mL at 8 mg/kg in PBS. Similarly, to determine the optimum dose for targeting efficacy and safety, LDLR KO mice fed the high fat diet for 14 weeks were injected at PA nanofiber doses of 8 mg/kg, 6 mg/kg, 4 mg/kg, 3.3 mg/kg, and 1.7 mg/kg at 2 mg/mL in PBS. Safety, optimum dose, and concentration for targeting was assessed by survival of the animal and fluorescent pixel quantification in the aortic root, liver, lungs, kidneys, and spleen.
as §3
as §4, with “Fluorescent pixel quantification in the aortic root and within organs was performed with ImageJ software.” left out

[5] = Treatment study serum chemistry (toxicology analysis); format: in vivo, mouse; settings: mouse, in vivo
Protocol: as §2, §3, §5

[6] = read-out: dissociation constant for PEIPC; cited from earlier work
[7] = ROS-Ac2-26 PA cleavage assay with SIN-1; format: physicochemical
Protocol: ROS-Ac2-26 and MMP-Ac2-26 PA cleavage assays: To examine ROS-mediated cleavage, 3-morpholinosydnonimine hydrochloride (SIN-1, Sigma-Aldrich or Abcam) was used. ROS-Ac2-26 PAs were reconstituted to 0.5 mM in phosphate buffer and treated with 100 μM SIN-1 for 24 hours at 37° C. For MMP2/9-mediated cleavage, human recombinant MMP2 (R&D systems, carrier-free) was used, activated with freshly prepared 1 mMp-aminophenylmercuric acetate (APMA, Sigma-Aldrich) for one hour at 37° C. The APMA disrupts the cysteine-zinc bond in MMP2 responsible for enzyme latency by liberation of the sulfhydryl group. 10% MMP-Ac2-26 PA co-assemblies were prepared at 0.5 mM in a cleavage buffer containing 50 mM tricine, 50 mM NaCl, 50 μM ZnCl2, and 10 mM CaCl2) at pH 7.4, and treated with 40 nM human recombinant MMP2 for 24 hours at 37° C. At the end of each time point, the samples were stored at −20° C., effectively stopping the cleavage reactions. Samples were analyzed at room temperature, 0.04-0.3 mg/mL with 0.1% NH4OH using a ThermoFisher Q Exactive HIF-X (ThermoFisher, Bremen, Germany) mass spectrometer coupled with a Waters Acquity H-class liquid chromatograph system. […] All measurements were recorded at a resolution setting of 120,000. […] Injection volume for all samples was […]. Data was analyzed on Xcalibur (ThermoFisher, Breman, Germany).

[8] = 30 measurements from three images
[9] = 30 measurements from three images, listed as Ser PA
[10] = 30 measurements from three images, listed as scrambled

Diameter (nm) Median [2, 8]: 14.2 nm
Length (nm) Average [2, 8]: 403.8 nm
Diameter (nm) Average [2, 9]: 13.8 nm
Length (nm) Median [2, 9]: 257.6 nm
Diameter (nm) Average [2, 10]: 13.8±2.4 nm
Length (nm) Median [2, 10]: 258 nm
Compound: CCCCCCCCCCCCCCCC(=O)N[C@H](C(=O)N[C@H](C(=O)N[C@@H](C)C(=O)N[C@@H](C)C(=O)N[C@@H](CCC(=O)O)C(=O)N[C@@H](CCC(=O)O)C(=O)N[C@@H](CS)C(=O)N[C@@H](CC(=O)O)C(=O)N[C@@H](Cc1c[nH]c2ccccc12)C(=O)N[C@@H](Cc1ccccc1)C(=O)N[C@@H](C)C(=O)N[C@@H](CCCCN)C(=O)N[C@@H](CC(=O)O)C(=O)N[C@@H](Cc1ccc(O)cc1)C(=O)N[C@@H](Cc1ccccc1)C(=O)N[C@@H](CCCCN)C(=O)N[C@@H](CCCCN)C(=O)N[C@@H](C)C(=O)N[C@@H](Cc1ccccc1)C(=O)N[C@H](C(=O)N[C@@H](CCC(=O)O)C(=O)N[C@@H](CCC(=O)O)C(=O)N[C@@H](Cc1ccccc1)C(=O)N[C@@H](C)C(=O)N[C@@H](CCCCN)C(N)=O)C(C)C)C(C)C)C(C)C [Scr PA] (Palmitoyl-VVAAEECDWFAKDYFKKAFVEEFAK-NH2)
atherosclerosis progression in comparison to the PBS control (LDLR KO mice [1]; both sexes, twice per week over eight weeks, percent of atherosclerosis in the aortic root): significantly decreased
reduction of atherosclerosis in females in comparison to males (LDLR KO mice [1]; mouse, in vivo): greater effects upon reducing atherosclerosis in females
localization of nanofibers to areas of atherosclerotic plaque in the aortic root [3]: does not reveal evidence of nanofiber localization
localization to areas of atherosclerosis (LDLR KO mice [4]): did not localize to areas of atherosclerosis
AST levels in comparison to the PBS control [5]: no significant differences
Creatine [5]: 0 U/L
Sodium [5]: 138 mmol/L
Total Protein [5]: 5.4 g/dL
aspartate aminotransferase (AST) in the blood in comparison to PBS [5]: significantly elevated levels of aspartate aminotransferase (AST)

Compound: native ApoA1: main protein component of high density lipoprotein (HDL) cholesterol
Kd [6]: 50 µM

Ac2-26 release from PA ([7]; 100 μM SIN-1, 24 hours, 37° C.): released Ac2-26
Compound: C16-V2A2 (SEQ ID NO: 8)-E2-KP5K (SEQ ID NO: 10)-AMVSEFLKQAWFIENEEQEYVQTVK SEQ ID NO: 7-NH2 [ROS-Ac2-26 PA]
Ac2-26 cleavage without SIN-1 treatment ([7]; untreated): showed the presence of cleaved Ac2-26 peptide

Compound: DWFKAFYDKVAEKFKEAF (SEQ ID NO: 2)-NH2 (DWFKAFYDKVAEKFKEAF-NH2) [4F, 18 amino acid ApoA1 mimetic peptide]
nanofiber formation [2]: No nanofiber formation
Kd [6]: 1e-05 µM
localization to areas of atherosclerosis (LDLR KO mice [4]): localized to areas of atherosclerosis
